Experiments:
IL-6 = assay: Real time RT-PCR of graft muscularis after SITx, IL-6; type: in vivo, LEW rats; conditions: figure legend 23A-23D, graft muscularis 4 hours after transplantation
Procedure: Small Intestinal Transplantation. Orthotopic small intestinal transplantation (SITx) was performed in syngeneic Lewis rats. SITx with caval drainage was performed using a previously described procedure (Murase et al., in Handbook of Animal Models in Transplantation Research, Cramer et al., Eds. CRC Press, Boca Raton, Fla., pp. 203-213 (1994)). […] The graft was perfused via the aortic segment with 5 ml chilled Ringer's lactate solution, and the intestinal lumen was irrigated with 20 ml of cold saline solution containing 0.5% neomycin-sulfate (Sigma, St. Louis, Mo.). End-to-side anastomoses between the graft aorta and the recipient infrarenal aorta, and between the graft portal vein and recipient vena cava, were performed with 10-0 Novafil™ suture. The cold ischemic time was 1 hour. The entire recipient intestine was removed and the enteric continuity was restored by proximal and distal end-to-end intestinal anastomoses. Recipient animals were given 20 mg/day prophylactic cefamandole nafate for 3 postoperative days. Transplanted recipients were given water 3 hours after surgery, and were fed 24 hours after surgery.
(§1) SYBR green real time RT-PCR. The effects of administration of biliverdin on transplant-induced pro-inflammatory and anti-inflammatory gene expression were assessed in muscularis extracts by RT-PCR Biliverdin ([…], i.p.) was administered to both the donor and recipient three hours preoperatively. The muscularis externae was collected from normal intestine and transplanted grafts 4 hours postoperatively and snap frozen in liquid nitrogen. […] Equal aliquots (5 μg) of total RNA from each sample were quantified by spectrophotometry (wavelength […]) and aliquoted at a concentration of 40 ng/μl. Peak mRNA expression was quantified in duplicate by SYBR Green two-step, real-time RT-PCR. […] Real-time PCR data were plotted as the ΔRn fluorescence signal versus the cycle number. […] Quantification of mRNA expression was normalized to GAPDH and calculated relative to control using the comparative CT method (Schmittgen et al., J. Biochem. Biophys. Methods 46(1-2):69-8, 2000). […]

IL-1β = assay: Real time RT-PCR of graft muscularis after SITx, IL-1β; type: in vivo, LEW rats; conditions: figure legend 23A-23D, graft muscularis 4 hours after transplantation
Procedure: Small Intestinal Transplantation. Orthotopic small intestinal transplantation (SITx) was performed in syngeneic Lewis rats. SITx with caval drainage was performed using a previously described procedure (Murase et al., in Handbook of Animal Models in Transplantation Research, Cramer et al., Eds. CRC Press, Boca Raton, Fla., pp. 203-213 (1994)). […] The graft was perfused via the aortic segment with 5 ml chilled Ringer's lactate solution, and the intestinal lumen was irrigated with 20 ml of cold saline solution containing 0.5% neomycin-sulfate (Sigma, St. Louis, Mo.). […]
as §1, with “preoperatively.” for “preoperatively. The muscularis externae was collected from normal intestine and transplanted grafts 4 hours postoperatively and snap frozen in liquid nitrogen.”

DSS-colitis = DSS-colitis (acute colitis) mouse model: weight loss, DAI, symptoms, crypt score; type: in vivo, C57BL/6 mice
Text: Animals. Pathogen-free male C57BL/6 mice, 4-6 weeks of age (Taconic; C57BL/6×129 svj strain) were used in this example. Mice were kept for one week at 4 mice/cage and fed normal laboratory chow and drinking water ad libitum prior to the experiments. All mice weighed between 22.5 g and 27.7 g at the beginning of the trial. The animal experimentation protocol was reviewed and approved by the Animal Care and Use Committees of the Beth Israel Deaconess Medical Center.
Induction of Colitis. Colitis was induced by feeding mice 5% (wt/v) dextran sodium sulfate (DSS) (MW 40,000; ICN Biomedicals Inc., OH), dissolved in distilled water, for a period of 7 days. The resulting condition was termed “DSS-colitis.” Control animals were fed distilled water ad libitum. The mortality rate in the control group and the CO-treated group was 10% (2/20) and 14% (2/14), respectively. These animals were excluded from the statistical analysis. In the other groups, no mortality occurred during 7 days of 5% DSS treatment.
Experimental Reagents and Treatment Protocol. Cobalt protoporphyrin (CoPPIX), zinc protoporphyrin (ZnPPIX, Porphyrin Products, Logan, Utah) and biliverdin dihydrochloride (ICN Biomedicals Inc., OH) were dissolved in a small amount 0.2 M NaOH, subsequently adjusted to a pH of 7.4 with 1 M HCl, and diluted in 0.9% NaCl. The stock solutions (CoPPIX and ZnPPIX=1 mg/ml, biliverdin=10 mM) were aliquoted and kept at −70° C. until used. Light exposure was limited as much as possible. CoPPIX (5 mg/kg), ZnPPIX (20 mg/kg) and biliverdin (50 μmol/kg) were administered to the mice intraperitoneally (i.p.) 24 hours before induction of DSS-colitis and daily thereafter. Desferoxamine (DFO) was prepared in imidazole buffer (50 mM imidazole, 220 mM NaCl, pH 7.4). DFO was injected subcutaneously (s.c.) twice daily (125 mg/kg) or infused i.p. (130 mg/kg/day; pumping rate 0.5 μl/hour for 8 days) by miniosmotic Alzet™ pumps (Alza Corporation, Palo Alto, Calif.) (Postma et al., Exp. Parasitol. 89(3):323-30 1998). The pumps were installed i.p. 24 hours before induction of colitis. When animals were sacrificed at day 7 of DSS treatment, the pumps were removed and evaluated to determine if DFO application had taken place.
CO gas was administrated exogenously by putting animals in a CO exposure chamber (Otterbein et al., Nat. Med. 6(4):422-8, 2000). Briefly, CO at a concentration of 1% (10,000 parts per million (ppm)) in compressed air was mixed with balanced air (21% oxygen) in a stainless steel mixing cylinder before entering the exposure chamber. CO concentrations were controlled by varying the flow rates of CO in a mixing cylinder before delivery to the chamber. Because the flow rate is primarily determined by the O2 flow, only the CO flow was changed to deliver the final concentration to the exposure chamber. A CO analyzer (Interscan Corporation, Chatsworth, Calif.) was used to measure CO levels continuously in the chamber. Mice were placed in the chamber 24 hours before the induction of the colitis and were kept in the exposure chamber during the whole period of the experiment (total of 8 days). […] Animals were removed daily from the chamber to assess weight and stool.
Evaluation of Symptoms of Colitis. All animals were evaluated clinically on a daily basis. The evaluation of each animal included a measurement of weight, hemoccult positivity and examination of stool for the presence of gross blood and stool consistency. The disease activity index (DAI) was calculated by scoring percent weight loss, intestinal bleeding (no blood; occult blood=hemoccult+; gross blood) and stool consistency (normal stool=well-formed pellets; loose stool=pasty and semiformed stools; diarrhea=liquid stool that stuck to the anus) (Table 1).
The animals were sacrificed, and the whole colon from the colo-cecal junction to the anal verge was removed and gently cleaned of stool. […]

[C-]#[O+] [CO, carbon monoxide]
mean expression of IL-6 mRNA (IL-6): significantly reduced | mean expression of IL-1b mRNA (IL-1β): significantly reduced | mortality rate (DSS-colitis; 7 days of 5% DSS, CO exposure chamber 250-400 ppm): 14% | effect on DSS-colitis (weight loss, DAI) (DSS-colitis; continuous exposure to 200-400 ppm CO, compared to the control): did not have an effect

— patent US8097585B2, “Methods of treating inflammation by administration of heme oxygenase-1 and products of heme degradation” (priority 2002, dated 2012)
